Laboratory results published in patent US20260217698A1 (BEYANG THERAPEUTICS CO., LTD., priority 2022, published 2026).
≈ marks a conversion by molar mass, not a printed value.

Experiments:
TIE2 = molecular target: T1, TIE2 (Homo sapiens, UniProt Q02763); test: Kinase inhibition, Mobility Shift Assay/IMAP, TIE2; assay type: biochemical
T1 construct: purchased BPS 40270
Summary of the method: (§1)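 Substrate conversion (phosphorylated vs non-phosphorylated) read by mobility shift on Caliper EZ Reader II and converted to % inhibition relative to no-enzyme and DMSO controls. IC50 fitted from % inhibition versus log compound concentration.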

[1] = Solubility test in buffer, LC-MS; assay type: physicochemical; settings: aqueous buffer, thermodynamic from solid, room temperature, shaking 8 h, pH not given (method: pH 2.0, 6.5, 7.4)
Summary of the method: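 Compound at 2 mg/mL in buffers of pH 2.0, 6.5 and 7.4, sonicated, shaken 8 h at room temperature, then centrifuged at 13,000 rpm. Supernatant quantified by LC-MS against a 3–5 point calibration.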

melanin = test: Binding capacity of compounds to melanin; assay type: in vitro ADME, cuttlefish (Sepia officinalis); settings: cuttlefish (Sepia officinalis), melanin suspension (1 mg/mL); 1 mg/mL melanin in PBS pH 7.4, 2 μM compound, 2 h at 37° C.; read-out: Fu % (percentage of free drug)
Summary of the method: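 Compound (2 μM final) incubated with washed Sepia melanin (1 mg/mL, PBS pH 7.4) 2 h at 37° C with shaking; PBS with 0.1% BSA served as blank. Supernatants quantified by LC-MS/MS; bound fraction Fb derived from melanin versus blank concentration.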

VEGFR2 = VEGFR2 (Homo sapiens, UniProt P35968); test: Kinase inhibition, Mobility Shift Assay/IMAP, VEGFR2; assay type: biochemical; design: purchased Carna 08-191
Summary of the method: as §1

VEGFR1 = molecular target: T2, VEGFR1 (Homo sapiens, UniProt P17948); test: Kinase inhibition, Mobility Shift Assay/IMAP, VEGFR1; assay type: biochemical
T2 construct: purchased Invitrogen PR6731B
Summary of the method: as §1

VEGFR3 = molecular target: T3, VEGFR3 (Homo sapiens, UniProt P35916); test: Kinase inhibition, Mobility Shift Assay/IMAP, VEGFR3; assay type: biochemical
T3 construct: purchased Invitrogen PV4129
Summary of the method: as §1

Sequence of VEGFR2 (P35968 790-1356 limits assumed): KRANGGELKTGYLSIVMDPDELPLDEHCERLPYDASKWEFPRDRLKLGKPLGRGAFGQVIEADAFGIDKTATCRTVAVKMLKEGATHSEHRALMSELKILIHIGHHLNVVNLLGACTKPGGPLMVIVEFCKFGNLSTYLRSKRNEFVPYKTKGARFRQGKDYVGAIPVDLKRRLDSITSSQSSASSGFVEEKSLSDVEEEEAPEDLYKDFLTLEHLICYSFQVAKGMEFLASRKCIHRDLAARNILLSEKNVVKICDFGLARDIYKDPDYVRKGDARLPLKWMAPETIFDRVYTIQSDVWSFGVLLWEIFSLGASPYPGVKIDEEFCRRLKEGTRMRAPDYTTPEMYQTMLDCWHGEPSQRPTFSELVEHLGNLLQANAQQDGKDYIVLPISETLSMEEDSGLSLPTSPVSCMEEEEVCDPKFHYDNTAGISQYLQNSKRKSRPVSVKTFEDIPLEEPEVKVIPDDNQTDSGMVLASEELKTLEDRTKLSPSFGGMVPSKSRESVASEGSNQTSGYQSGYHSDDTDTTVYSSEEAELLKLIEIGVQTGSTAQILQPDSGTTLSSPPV
T3 sequence (P35916 25-1363): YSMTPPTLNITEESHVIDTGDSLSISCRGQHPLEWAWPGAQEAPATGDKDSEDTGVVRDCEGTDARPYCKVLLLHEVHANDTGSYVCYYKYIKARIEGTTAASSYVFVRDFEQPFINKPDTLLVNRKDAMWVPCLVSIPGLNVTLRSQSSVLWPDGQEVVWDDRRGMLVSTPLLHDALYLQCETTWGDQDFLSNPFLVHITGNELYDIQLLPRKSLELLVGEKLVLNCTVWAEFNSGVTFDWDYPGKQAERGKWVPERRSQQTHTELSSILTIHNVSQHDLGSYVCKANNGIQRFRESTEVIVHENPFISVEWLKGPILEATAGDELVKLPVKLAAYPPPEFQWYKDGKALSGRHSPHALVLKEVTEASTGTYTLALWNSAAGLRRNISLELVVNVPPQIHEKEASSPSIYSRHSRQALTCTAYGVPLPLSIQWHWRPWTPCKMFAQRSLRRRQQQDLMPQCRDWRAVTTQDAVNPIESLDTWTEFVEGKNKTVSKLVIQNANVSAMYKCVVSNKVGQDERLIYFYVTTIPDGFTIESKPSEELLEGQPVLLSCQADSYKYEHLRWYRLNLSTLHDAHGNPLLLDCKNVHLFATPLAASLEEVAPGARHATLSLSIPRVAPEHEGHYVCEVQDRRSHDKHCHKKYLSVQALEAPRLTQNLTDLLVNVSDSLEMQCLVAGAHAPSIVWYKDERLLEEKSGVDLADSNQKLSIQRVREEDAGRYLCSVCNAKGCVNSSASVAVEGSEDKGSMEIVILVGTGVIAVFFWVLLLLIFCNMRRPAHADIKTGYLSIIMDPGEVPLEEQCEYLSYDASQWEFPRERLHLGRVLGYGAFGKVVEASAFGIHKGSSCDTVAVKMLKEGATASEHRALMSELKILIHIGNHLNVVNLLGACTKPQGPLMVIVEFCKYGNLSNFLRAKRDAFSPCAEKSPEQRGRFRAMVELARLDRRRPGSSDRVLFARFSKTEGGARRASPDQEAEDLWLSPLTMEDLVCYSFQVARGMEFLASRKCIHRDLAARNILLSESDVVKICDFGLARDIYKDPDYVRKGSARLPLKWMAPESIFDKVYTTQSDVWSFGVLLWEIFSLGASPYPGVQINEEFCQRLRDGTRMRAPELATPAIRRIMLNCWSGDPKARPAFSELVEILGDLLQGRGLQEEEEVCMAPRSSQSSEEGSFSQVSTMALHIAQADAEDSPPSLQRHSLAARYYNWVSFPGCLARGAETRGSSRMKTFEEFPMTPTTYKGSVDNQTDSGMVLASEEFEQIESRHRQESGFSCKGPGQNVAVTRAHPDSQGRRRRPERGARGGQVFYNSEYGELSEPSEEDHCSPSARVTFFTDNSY
T1 sequence (Q02763 23-1124): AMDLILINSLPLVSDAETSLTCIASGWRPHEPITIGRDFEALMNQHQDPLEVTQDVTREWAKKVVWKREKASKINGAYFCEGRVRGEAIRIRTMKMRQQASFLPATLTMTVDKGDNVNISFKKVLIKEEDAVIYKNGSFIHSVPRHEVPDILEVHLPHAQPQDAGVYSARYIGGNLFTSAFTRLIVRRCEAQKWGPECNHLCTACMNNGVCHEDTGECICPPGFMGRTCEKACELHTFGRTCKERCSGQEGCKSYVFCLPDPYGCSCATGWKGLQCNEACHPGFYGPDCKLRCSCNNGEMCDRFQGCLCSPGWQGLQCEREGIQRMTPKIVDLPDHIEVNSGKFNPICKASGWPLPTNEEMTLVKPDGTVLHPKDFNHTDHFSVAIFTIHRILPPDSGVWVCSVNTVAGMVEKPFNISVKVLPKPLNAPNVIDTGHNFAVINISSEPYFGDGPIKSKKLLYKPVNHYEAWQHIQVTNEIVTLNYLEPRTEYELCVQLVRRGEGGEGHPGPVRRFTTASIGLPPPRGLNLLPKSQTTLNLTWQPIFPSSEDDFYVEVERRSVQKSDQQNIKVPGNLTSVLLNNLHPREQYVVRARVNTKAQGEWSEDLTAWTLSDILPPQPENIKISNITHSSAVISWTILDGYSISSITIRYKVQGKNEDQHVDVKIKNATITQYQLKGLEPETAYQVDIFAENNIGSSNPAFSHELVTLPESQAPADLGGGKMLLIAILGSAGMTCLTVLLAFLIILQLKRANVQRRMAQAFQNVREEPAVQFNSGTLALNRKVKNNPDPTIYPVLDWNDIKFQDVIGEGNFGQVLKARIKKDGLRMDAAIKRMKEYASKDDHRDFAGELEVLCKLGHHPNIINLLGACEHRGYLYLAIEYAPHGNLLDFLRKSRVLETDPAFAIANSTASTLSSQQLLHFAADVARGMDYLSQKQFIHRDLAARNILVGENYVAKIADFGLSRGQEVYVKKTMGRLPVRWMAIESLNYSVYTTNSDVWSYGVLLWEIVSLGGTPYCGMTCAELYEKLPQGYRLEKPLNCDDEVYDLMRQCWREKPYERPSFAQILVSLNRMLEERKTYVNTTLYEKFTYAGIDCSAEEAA
T2 sequence (P17948 27-1338): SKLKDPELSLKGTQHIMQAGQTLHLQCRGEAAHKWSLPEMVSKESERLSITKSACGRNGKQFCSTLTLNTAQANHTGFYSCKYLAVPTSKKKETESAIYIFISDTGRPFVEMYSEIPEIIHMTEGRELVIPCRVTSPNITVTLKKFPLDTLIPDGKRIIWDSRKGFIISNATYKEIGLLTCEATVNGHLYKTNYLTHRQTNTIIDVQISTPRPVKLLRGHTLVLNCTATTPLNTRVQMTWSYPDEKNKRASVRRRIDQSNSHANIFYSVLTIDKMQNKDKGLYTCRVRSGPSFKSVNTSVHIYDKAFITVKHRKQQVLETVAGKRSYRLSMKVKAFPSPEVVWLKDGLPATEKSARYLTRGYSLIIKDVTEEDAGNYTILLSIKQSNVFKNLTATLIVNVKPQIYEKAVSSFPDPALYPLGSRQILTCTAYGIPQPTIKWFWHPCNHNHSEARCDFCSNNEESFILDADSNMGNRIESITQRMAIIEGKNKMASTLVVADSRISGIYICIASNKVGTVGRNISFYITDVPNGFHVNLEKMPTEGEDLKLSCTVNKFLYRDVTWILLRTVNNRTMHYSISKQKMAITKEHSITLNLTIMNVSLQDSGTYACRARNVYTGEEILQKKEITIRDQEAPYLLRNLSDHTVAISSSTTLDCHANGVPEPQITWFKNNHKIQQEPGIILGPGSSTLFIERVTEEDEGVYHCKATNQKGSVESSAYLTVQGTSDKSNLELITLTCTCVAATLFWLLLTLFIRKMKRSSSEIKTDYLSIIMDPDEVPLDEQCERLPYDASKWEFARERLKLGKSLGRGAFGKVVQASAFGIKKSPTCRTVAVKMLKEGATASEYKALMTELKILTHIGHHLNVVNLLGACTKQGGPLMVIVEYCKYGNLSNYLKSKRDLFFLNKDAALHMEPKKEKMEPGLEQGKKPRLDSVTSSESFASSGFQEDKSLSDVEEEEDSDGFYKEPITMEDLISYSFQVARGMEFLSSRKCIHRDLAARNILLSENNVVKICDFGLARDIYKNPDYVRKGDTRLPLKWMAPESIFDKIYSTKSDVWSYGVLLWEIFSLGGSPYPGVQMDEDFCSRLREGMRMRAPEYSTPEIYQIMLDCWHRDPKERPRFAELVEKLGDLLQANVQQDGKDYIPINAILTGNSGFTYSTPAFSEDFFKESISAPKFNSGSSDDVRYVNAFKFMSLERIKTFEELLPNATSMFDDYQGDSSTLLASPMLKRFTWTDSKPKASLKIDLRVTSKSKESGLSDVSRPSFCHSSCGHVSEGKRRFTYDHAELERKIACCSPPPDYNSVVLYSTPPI

Row | IC50 (TIE2) | solubility at 8 h [1] | fraction unbound at 2 h, 2 μM (melanin) | IC50 (VEGFR2) | IC50 (VEGFR1) | IC50 (VEGFR3) | Structure (SMILES)
1 | 2890 nM | 1950 µg/mL (≈ 3.63 mM) | 0.0707 | 2.2 nM |  |  | NC(=O)c1c(OCc2c(F)ccc(C(=O)NC3CC3)c2F)nsc1NC(=O)NCCCCN1CCCC1 [Compound T124, 3-[[3-(cyclopropylcarbamoyl)-2,6-difluoro-phenyl]methoxy]-5-(4-pyrrolidin-1-ylbutylcarbamoylamino)isothiazole-4-carboxamide]
2 | 2360 nM | 1090 µg/mL (≈ 2.08 mM) | 0.0376 | 1.14 nM | 1.21 nM | 4.8 nM | NC(=O)c1c(OCc2cc(C(=O)NC3CC3)ccc2F)nsc1NC(=O)NCCCN1CC[C@H](F)C1 [Compound T116, 3-[[5-(cyclopropylcarbamoyl)-2-fluoro-phenyl]methoxy]-5-[3-[(3S)-3-fluoropyrrolidin-1-yl]propylcarbamoylamino]isothiazole-4-carboxamide]
3 | 163 nM |  | 0.0702 | 4.85 nM |  |  | CN1CCN(CCCNC(=O)Nc2snc(OCc3cc4c(cc3F)CCO4)c2C(N)=O)CC1 [Compound T101, 3-[(5-fluoro-2,3-dihydrobenzofuran-6-yl)methoxy]-5-[3-(4-methylpiperazin-1-yl)propylcarbamoylamino] isothiazole-4-carboxamide]
4 |  | 2050 µg/mL (≈ 3.85 mM) | 0.111 | 1.15 nM |  |  | CN1CCN(CCCNC(=O)Nc2snc(OCc3cc(C(=O)NC4CC4)ccc3F)c2C(N)=O)CC1 [Compound T118, 3-[[5-(cyclopropylcarbamoyl)-2-fluoro-phenyl]methoxy]-5-[3-(4-methylpiperazin-1-yl)propylcarbamoylamino]isothiazole-4-carboxamide]
5 | 1420 nM |  | 0.0374 | 1.66 nM | 1.11 nM | 0.8 nM | NC(=O)c1c(OCc2cc(C(=O)NC3CC3)ccc2F)nsc1NC(=O)NCCCCN1CCCC1 [Compound T087, 3-[[5-(cyclopropylcarbamoyl)-2-fluoro-phenyl]methoxy]-5-(4-pyrrolidin-1-ylbutylcarbamoylamino)isothiazole-4-carboxamide]
6 |  |  | 0.0286 | 3.03 nM | 5.87 nM | 6.72 nM | NC(=O)c1c(OCc2cc3c(cc2F)CCO3)nsc1NC(=O)NCCCCN1CC[C@@H](O)C1 [Compound T091, 3-[(5-fluoro-2,3-dihydrobenzofuran-6-yl)methoxy]-5-[4-[(3R)-3-hydroxypyrrolidin-1-yl]butylcarbamoylamino] isothiazole-4-carboxamide]
7 | 973 nM |  | 0.0298 | 0.63 nM |  |  | NC(=O)c1c(OCc2cc(C(=O)NC3CC3)ccc2Cl)nsc1NC(=O)NCCCCN1CCCC1 [Compound T123, 3-[[2-chloro-5-(cyclopropylcarbamoyl)phenyl]methoxy]-5-(4-pyrrolidin-1-ylbutylcarbamoylamino)isothiazole-4-carboxamide]
